Experimental data as given in paper PMC11124822, “Discovery and Anticancer Screening of Novel Oxindole-Based Derivative Bearing Pyridyl Group as Potent and Selective Dual FLT3/CDK2 Kinase Inhibitor” (Pharmaceuticals, 2024).

Assays:
Assay in all cases: NCI-60 antiproliferative screen (SRB)
NCI-H322M = format: cell-based, human; conditions: Homo sapiens; 10 µM single dose, 48 h; NCI-H322M (NSCLC); read-out: Growth inhibition (%)
HL-60(TB) = format: cell-based, human; conditions: Homo sapiens; 10 µM single dose, 48 h; HL-60(TB) (Leukemia); read-out: Growth inhibition (%)
SR = conditions: Homo sapiens, 48 h, read-out: Growth inhibition (%)
MCF7 = format: cell-based, human; conditions: Homo sapiens; 10 µM single dose, 48 h; MCF7 (Breast); read-out: Growth inhibition (%)
NCI-H522 = format: cell-based, human; conditions: Homo sapiens; 10 µM single dose, 48 h; NCI-H522 (NSCLC); read-out: Growth inhibition (%)
HCC-2998 = format: cell-based, human; conditions: Homo sapiens; 10 µM single dose, 48 h; HCC-2998 (Colon); read-out: Growth inhibition (%)
BT-549 = format: cell-based, human; conditions: Homo sapiens; 10 µM single dose, 48 h; BT-549 (Breast); read-out: Growth inhibition (%)
NCI/ADR-RES = format: cell-based, human; conditions: Homo sapiens; 10 µM single dose, 48 h; NCI/ADR-RES (Ovarian); read-out: Growth inhibition (%)
HCT-15 = format: cell-based, human; conditions: Homo sapiens; 10 µM single dose, 48 h; HCT-15 (Colon); read-out: Growth inhibition (%)
NCI-H460 = format: cell-based, human; conditions: Homo sapiens; 10 µM single dose, 48 h; NCI-H460 (NSCLC); read-out: Growth inhibition (%)
SNB-75 = conditions: Homo sapiens, SNB-75, 48 h, read-out: Growth inhibition (%)
Method: (§1) Anticancer activity was tested against 60 cancer cell lines (NCI-60) after 48h treatments with a single dosage of 10 μM of compounds by using sulforhodamine B assay [39] on the traditional 96-well platform. […] The human cancer cell lines of the NCI-60 panel are grown in RPMI 1640 medium supplemented with 5% FBS (fetal bovine serum) and 2 mM L-glutamine. […] For further analysis of promising compounds, five dose screens were performed against the NCI-60 panel. Drug treatments are performed in 5 doses using 10-fold or ½ log dose dilutions.

DU-145 = format: cell-based, human; conditions: Homo sapiens; 10 µM single dose, 48 h; DU-145 (Prostate); read-out: Growth inhibition (%)
RPMI-8226 = format: cell-based, human; conditions: Homo sapiens; 10 µM single dose, 48 h; RPMI-8226 (Leukemia); read-out: Growth inhibition (%)
OVCAR-5 = format: cell-based, human; conditions: Homo sapiens; 10 µM single dose, 48 h; OVCAR-5 (Ovarian); read-out: Growth inhibition (%)
786-0 = format: cell-based, human; conditions: Homo sapiens; 10 µM single dose, 48 h; 786-0 (Renal); read-out: Growth inhibition (%)
COLO 205 = format: cell-based, human; conditions: Homo sapiens; 10 µM single dose, 48 h; COLO 205 (Colon); read-out: Growth inhibition (%)
SK-MEL-2 = format: cell-based, human; conditions: Homo sapiens; 10 µM single dose, 48 h; SK-MEL-2 (Melanoma); read-out: Growth inhibition (%)
SF-539 = format: cell-based, human; conditions: Homo sapiens; 10 µM single dose, 48 h; SF-539 (CNS); read-out: Growth inhibition (%)
UO-31 = format: cell-based, human; conditions: Homo sapiens; 10 µM single dose, 48 h; UO-31 (Renal); read-out: Growth inhibition (%)
SF-268 = format: cell-based, human; conditions: Homo sapiens; 10 µM single dose, 48 h; SF-268 (CNS); read-out: Growth inhibition (%)
MDA-MB-435 = format: cell-based, human; conditions: Homo sapiens; 10 µM single dose, 48 h; MDA-MB-435 (Melanoma); read-out: Growth inhibition (%)
SW-620 = format: cell-based, human; conditions: Homo sapiens; 10 µM single dose, 48 h; SW-620 (Colon); read-out: Growth inhibition (%)
HS 578T = format: cell-based, human; conditions: Homo sapiens; 10 µM single dose, 48 h; HS 578T (Breast); read-out: Growth inhibition (%)
A498 = format: cell-based, human; conditions: Homo sapiens; 10 µM single dose, 48 h; A498 (Renal); read-out: Growth inhibition (%)
MALME-3M = format: cell-based, human; conditions: Homo sapiens; 10 µM single dose, 48 h; MALME-3M (Melanoma); read-out: Growth inhibition (%)
ACHN = format: cell-based, human; conditions: Homo sapiens; 10 µM single dose, 48 h; ACHN (Renal); read-out: Growth inhibition (%)
M14 = format: cell-based, human; conditions: Homo sapiens; 10 µM single dose, 48 h; M14 (Melanoma); read-out: Growth inhibition (%)
NCI-H23 = format: cell-based, human; conditions: Homo sapiens; 10 µM single dose, 48 h; NCI-H23 (NSCLC); read-out: Growth inhibition (%)
K-562 = format: cell-based, human; conditions: Homo sapiens, K562; 10 µM single dose, 48 h; K-562 (Leukemia); read-out: Growth inhibition (%)
OVCAR-4 = conditions: Homo sapiens, OVCAR-4, 48 h, read-out: Growth inhibition (%)
Method: as §1

OVCAR-3 = format: cell-based, human; conditions: Homo sapiens; 10 µM single dose, 48 h; OVCAR-3 (Ovarian); read-out: Growth inhibition (%)

| Compound | inhibition at 10 µM (NCI-H322M) | inhibition at 10 µM (HL-60(TB)) | inhibition at 10 µM (SR) | inhibition at 10 µM (MCF7) | inhibition at 10 µM (NCI-H522) | inhibition at 10 µM (HCC-2998) | inhibition at 10 µM (NCI/ADR-RES) | inhibition at 10 µM (HCT-15) | inhibition at 10 µM (NCI-H460) | inhibition at 10 µM (SNB-75) | inhibition at 10 µM (DU-145) | inhibition at 10 µM (RPMI-8226) | inhibition at 10 µM (OVCAR-5) | inhibition at 10 µM (786-0) | inhibition at 10 µM (COLO 205) | inhibition at 10 µM (SF-539) | inhibition at 10 µM (UO-31) | inhibition at 10 µM (SF-268) | inhibition at 10 µM (MDA-MB-435) | inhibition at 10 µM (SW-620) | further results |
| --- | --- | --- | --- | --- | --- | --- | --- | --- | --- | --- | --- | --- | --- | --- | --- | --- | --- | --- | --- | --- | --- |
| O=C1Nc2cc(Cl)ccc2C1=Cc1ccc(OCc2ccccc2)cc1 (mixture of isomers) [Compound 5d, (E/Z)-3-[4-(Benzyloxy)benzylidene]-6-chloroindolin-2-one] | 0.49% | -13.1% | -4.93% | 38.4% | 0.19% | -1.79% | -4.24% | 5% | -4.48% | 26.7% | -1.25% | -7.36% | -0.55% | -4.97% | -9.74% | 5.48% | 23.8% | 5.55% | 0.59% | 0.6% | inhibition at 10 µM (BT-549): -1.23%; inhibition at 10 µM (SK-MEL-2): -11.3%; inhibition at 10 µM (HS 578T): 3.27%; inhibition at 10 µM (A498): 6.98%; inhibition at 10 µM (MALME-3M): -15.4%; inhibition at 10 µM (ACHN): 5.18%; inhibition at 10 µM (M14): 3.83%; inhibition at 10 µM (NCI-H23): 5.71%; inhibition at 10 µM (K-562): 6.91%; inhibition at 10 µM (OVCAR-4): 3.65% |
| O=C1Nc2ccc(F)cc2C1=Cc1ccc(OCc2ccncc2)cc1 (mixture of isomers) [Compound 5n, (E/Z)-5-Fluoro-3-[4-(pyridin-4-ylmethoxy)benzylidene] indolin-2-one] | 27.6% | 57.8% | 85.4% | 91.8% | 82% | 25.7% | 74.2% | 78.8% | 44.4% | 26.6% | 38.4% | 64.5% | -27.6% | 19.4% | 22.1% | 41.7% | 54.8% | 38.8% | 61.7% | 41.1% | inhibition at 10 µM (OVCAR-3): 39.2%; inhibition at 10 µM (SK-MEL-2): 28.1%; inhibition at 10 µM (HS 578T): 28.9%; inhibition at 10 µM (A498): 12.9%; inhibition at 10 µM (MALME-3M): 26.8%; inhibition at 10 µM (ACHN): 70.3%; inhibition at 10 µM (M14): 32.5%; inhibition at 10 µM (NCI-H23): 58.6%; inhibition at 10 µM (K-562): 79.3%; inhibition at 10 µM (OVCAR-4): 43.4% |
| O=C1Nc2ccccc2C1=Cc1ccc(OCc2ccncc2)cc1 (mixture of isomers) [Compound 5m, (E/Z)-3-[4-(Pyridin-4-ylmethoxy)benzylidene] indolin-2-one] | 20.9% | 55.3% | 73.3% | 71.6% | 32.7% | 20.6% | 61.8% | 62.3% | 40.5% | 35.2% | 33.7% | 71.5% | -33.2% | 14.6% | 38.3% | 24.9% | 44.7% | 22.7% | 49.6% | 22% | inhibition at 10 µM (OVCAR-3): 21.5%; inhibition at 10 µM (SK-MEL-2): 27.2%; inhibition at 10 µM (HS 578T): 17.9%; inhibition at 10 µM (A498): 2.17%; inhibition at 10 µM (MALME-3M): 17.4%; inhibition at 10 µM (ACHN): 24.1%; inhibition at 10 µM (M14): 23.7%; inhibition at 10 µM (NCI-H23): 49.8%; inhibition at 10 µM (K-562): 62.7%; inhibition at 10 µM (OVCAR-4): 42.7% |
| O=C1Nc2ccc(F)cc2C1=Cc1ccc(OCc2ccccc2)cc1 (mixture of isomers) [Compound 5b, (E/Z)-3-[4-(Benzyloxy)benzylidene]-5-fluoroindolin-2-one] | 2.81% | 7.92% | -0.14% | 7.57% | 5.91% | -9.12% | 0.01% | 3.51% | -0.94% | 5.15% | 0.4% | 2.59% | -0.99% | 0.43% | 1.92% | 4.67% | 2.55% | 5.43% | 5.59% | -2.34% | inhibition at 10 µM (BT-549): -6.03%; inhibition at 10 µM (HS 578T): -0.32%; inhibition at 10 µM (MALME-3M): 7.33%; inhibition at 10 µM (ACHN): -7.3%; inhibition at 10 µM (M14): 3.39%; inhibition at 10 µM (NCI-H23): 1.73%; inhibition at 10 µM (K-562): 7.19%; inhibition at 10 µM (OVCAR-4): 0.82% |
| O=C1Nc2ccc(Cl)cc2C1=Cc1ccc(OCc2ccncc2)cc1 (mixture of isomers) [Compound 5o, (E/Z)-5-Chloro-3-[4-(pyridin-4-ylmethoxy)benzylidene] indolin-2-one] | 40.6% | 66.5% | 88.9% | 92.8% | 86% | 12.4% | 67.6% | 79.1% | 57.8% | 21.2% | 49.3% | 70.5% | -14.4% | 32.4% | 19.2% | 44% | 51.1% | 55.7% | 58.7% | 48.3% | inhibition at 10 µM (OVCAR-3): 67.4%; inhibition at 10 µM (SK-MEL-2): 4.23%; inhibition at 10 µM (HS 578T): 27%; inhibition at 10 µM (A498): 1.01%; inhibition at 10 µM (MALME-3M): 43%; inhibition at 10 µM (ACHN): 70.2%; inhibition at 10 µM (M14): 33%; inhibition at 10 µM (NCI-H23): 55.3%; inhibition at 10 µM (K-562): 72.5%; inhibition at 10 µM (OVCAR-4): 47.3% |
